The values that follow come from PubChem BioAssay (NCI).

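Five concentrations, 48 hours, 96-well plates. Abbreviation: GI50, concentration required for 50% inhibition of growth. TGI: total growth inhibition.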

In one assay the test system is M14 melanoma. As to the kind of experiment: NCI anticancer screen, dose series, 48 h.
In the case of `CC(C)(C)c1ccc(Oc2nccc(-c3c(-c4ccc(F)cc4)ncn3C3CCNCC3)n2)cc1`, the GI50 is 4.5 µM and the TGI turned out to be 8.46 µM.
Compound `O=C(O)C(/C=C/c1ccccc1)c1ccccc1` (configuration not stated) displayed a TGI of more than 100 µM.
Consider `COc1ccc(-c2cn(-c3cc(OC)c(OC)c(OC)c3)c(SCc3ccccc3)n2)cc1OC`, for which the GI50 is more than 100 µM and the TGI is more than 100 µM.
In the case of `COc1ccc(-c2nc(-c3nc4ccc(OC)cc4[nH]3)c3ccccn23)cc1`, the GI50 is 3.74 µM and the TGI came to 16 µM.
As for `Cc1ccc(S(=O)(=O)N/N=C/c2c(O)ccc3ccccc23)cc1`, the TGI amounted to 64.9 µM.
Turning to `COc1cc(NC(C)CCCNC2CN3CCC2CC3)c2ncccc2c1` (configuration not stated), the GI50 was 3.92 µM and the TGI stood at 13.5 µM.
Consider `CN[C@@H](C)C(=O)N[C@H](C(=O)N1CCC[C@H]1C(=O)Nc1snnc1-c1ccccc1)C1CCCCC1`, for which the GI50 is 24.6 µM and the TGI came to 55.8 µM.
Regarding `FC(F)(F)c1ccc(Nc2nc(-c3c(C(F)(F)F)nc4ccccn34)cs2)cc1`, the GI50 is 0.043 µM and the TGI is 1.22 µM.
As to `COc1cc([N+](=O)[O-])c(OC)cc1-c1nc2sc(Cl)cn2c1/C(N)=N/C(=N)N`, the GI50 was 3.51 µM and the TGI was determined as 13 µM.
In the case of `COc1cc(CSc2nc3ccc(C)cc3c(=O)n2-c2ccccc2)cc(OC)c1OC`, the GI50 is 1.4 µM and the TGI is more than 100 µM.
With `CN(CCCn1c2c(c3ccccc3c1=O)C(=O)c1ccccc1-2)CCCn1c2c(c3ccccc3c1=O)C(=O)c1ccccc1-2`, the GI50 is 2.31 µM and the TGI was more than 22.6 µM.
Consider `C(#Cc1ccccc1C#Cc1cccs1)c1cccs1`, for which the GI50 was 32.9 µM and the TGI is more than 100 µM.
Compound `COc1ccc(C2=CC(c3ccc4c(c3)OCO4)c3c(c4ccccc4oc3=O)O2)cc1OC` (configuration not stated) came in with a TGI of more than 100 µM.
Turning to `C=C1C(=O)O[C@H]2[C@H]1CC/C(COC(=O)NCc1cn(C)c3ccccc13)=C\CC[C@@]1(C)O[C@@H]21`, the GI50 was 1.45 µM and the TGI turned out to be 2.92 µM.
Compound `CCS(CC)(CC)CC1CCCC2=CCC(P(=O)(c3ccccc3)c3ccccc3)CC21` (configuration not stated) returned a TGI of 25.6 µM.
`CC(=O)OCC1OC(n2cnc(C(N)=S)c2N)C(OC(C)=O)C1OC(C)=O` (configuration not stated) came in with a TGI of more than 100 µM.
`Cn1cc(C(=O)NCCC(=N)N)cc1NC(=O)C1=[N+](C)C=C(NC(=O)c2cccc(C(=O)NC3=CC(C(=O)Nc4cc(C(=O)NCCC(=N)N)cn4C)=[N+](C)C3)c2)C1` came in with a TGI of more than 100 µM.
`Nc1c(C(=O)c2cccc(-c3ccncc3)c2)cnn1-c1ccc(F)cc1F`: the GI50 is 6.58 µM and the TGI was more than 25 µM.

The subject of the next assay is NCI-H522 lung. As to the kind of experiment: NCI anticancer screen, dose series, 48 h.
In the case of `CC(C)(C)c1ccc(Oc2nccc(-c3c(-c4ccc(F)cc4)ncn3C3CCNCC3)n2)cc1`, the GI50 is 4.69 µM and the TGI was determined as 8.58 µM.
In turn, `O=C(O)C(/C=C/c1ccccc1)c1ccccc1` (configuration not stated) showed a TGI of more than 100 µM.
Consider `COc1ccc(-c2cn(-c3cc(OC)c(OC)c(OC)c3)c(SCc3ccccc3)n2)cc1OC`, for which the GI50 was more than 100 µM and the TGI is more than 100 µM.
Take `COc1ccc(-c2nc(-c3nc4ccc(OC)cc4[nH]3)c3ccccn23)cc1`: the GI50 was 2.89 µM and the TGI is 11.2 µM.
`Cc1ccc(S(=O)(=O)N/N=C/c2c(O)ccc3ccccc23)cc1` gave a TGI of 45.6 µM.
For `CN[C@@H](C)C(=O)N[C@H](C(=O)N1CCC[C@H]1C(=O)Nc1snnc1-c1ccccc1)C1CCCCC1`, the GI50 was 18.3 µM and the TGI turned out to be 53.4 µM.
Regarding `FC(F)(F)c1ccc(Nc2nc(-c3c(C(F)(F)F)nc4ccccn34)cs2)cc1`, the GI50 was 0.0284 µM and the TGI stood at 0.754 µM.
For `COc1cc([N+](=O)[O-])c(OC)cc1-c1nc2sc(Cl)cn2c1/C(N)=N/C(=N)N`, the GI50 is 2.35 µM and the TGI was found to be 5.49 µM.
In the case of `COc1cc(CSc2nc3ccc(C)cc3c(=O)n2-c2ccccc2)cc(OC)c1OC`, the GI50 was 1.44 µM and the TGI was more than 25.3 µM.
`CN(CCCn1c2c(c3ccccc3c1=O)C(=O)c1ccccc1-2)CCCn1c2c(c3ccccc3c1=O)C(=O)c1ccccc1-2` showed a TGI of more than 100 µM.
On to `C(#Cc1ccccc1C#Cc1cccs1)c1cccs1`, for which the GI50 is 34.2 µM and the TGI was more than 100 µM.
Consider `C=C1C(=O)O[C@H]2[C@H]1CC/C(COC(=O)NCc1cn(C)c3ccccc13)=C\CC[C@@]1(C)O[C@@H]21`, for which the GI50 was 1.02 µM and the TGI worked out at 2.44 µM.
For the compound `CCS(CC)(CC)CC1CCCC2=CCC(P(=O)(c3ccccc3)c3ccccc3)CC21` (configuration not stated), the TGI turned out to be 25.5 µM.
As to `CC(=O)OCC1OC(n2cnc(C(N)=S)c2N)C(OC(C)=O)C1OC(C)=O` (configuration not stated), the TGI was more than 100 µM.
`Cn1cc(C(=O)NCCC(=N)N)cc1NC(=O)C1=[N+](C)C=C(NC(=O)c2cccc(C(=O)NC3=CC(C(=O)Nc4cc(C(=O)NCCC(=N)N)cn4C)=[N+](C)C3)c2)C1` showed a TGI of more than 100 µM.
`Nc1c(C(=O)c2cccc(-c3ccncc3)c2)cnn1-c1ccc(F)cc1F`: the GI50 is 5.73 µM and the TGI is more than 18.7 µM.

In another assay the test system is BT-549 breast. As to the kind of experiment: NCI anticancer screen, dose series, 48 h.
In the case of `CC(C)(C)c1ccc(Oc2nccc(-c3c(-c4ccc(F)cc4)ncn3C3CCNCC3)n2)cc1`, the GI50 is 4.1 µM and the TGI worked out at 7.6 µM.
`O=C(O)C(/C=C/c1ccccc1)c1ccccc1` (configuration not stated) came in with a TGI of more than 100 µM.
Consider `COc1ccc(-c2cn(-c3cc(OC)c(OC)c(OC)c3)c(SCc3ccccc3)n2)cc1OC`, for which the GI50 is more than 100 µM and the TGI is more than 100 µM.
As for `COc1ccc(-c2nc(-c3nc4ccc(OC)cc4[nH]3)c3ccccn23)cc1`, the GI50 was 3.2 µM and the TGI came to 8.86 µM.
Compound `Cc1ccc(S(=O)(=O)N/N=C/c2c(O)ccc3ccccc23)cc1` registered a TGI of 59.6 µM.
Consider `COc1cc(NC(C)CCCNC2CN3CCC2CC3)c2ncccc2c1` (configuration not stated), for which the GI50 is 14.8 µM and the TGI is 29.3 µM.
For `CN[C@@H](C)C(=O)N[C@H](C(=O)N1CCC[C@H]1C(=O)Nc1snnc1-c1ccccc1)C1CCCCC1`, the TGI was more than 81.5 µM.
